Reference: patent US10093678B2, “Azaspiro derivatives as TRPM8 antagonists” (RaQualia Pharma Inc., priority 2014, dated 2018)

Assays:
Human HERG = target: T1, Human HERG (Homo sapiens, UniProt Q12809); assay: Human dofetilide binding assay; settings: Human HERG transfected HEK293S cell membranes
T1 construct: expressed in transfected cells; host or cells: HEK293S (membrane homogenate)
Protocol: Human Dofetilide Binding Assay
Human HERG transfected HEK293S cells are prepared and grown in-house. The collected cells are suspended in 50 mM Tris-HCl (pH 7.4 at 4° C.) and homogenized using a hand held Polytron PT 1200 disruptor set at full power for 20 sec on ice. The homogenates are centrifuged at 48,000×g at 4° C. for 20 min. The pellets are then resuspended, homogenized, and centrifuged once more in the same manner. The final pellets are resuspended in an appropriate volume of 50 mM Tris-HCl, 10 mM KCl, 1 mM MgCl2 (pH 7.4 at 4° C.), homogenized, aliquoted and stored at −80° C. until use. An aliquot of membrane fractions is used for protein concentration determination using BCA protein assay kit (PIERCE) and ARVOsx plate reader (Wallac). Binding assays are conducted in a total volume of 30 microL in 384-well plates. The activity is measured by PHERAstar (BMG LABTECH) using fluorescence polarization technology. Ten microL of test compounds are incubated with 10 microL of fluorescence ligand (6 nM Cy3B tagged dofetilide derivative) and 10 microL of membrane homogenate (6 microgram protein) for 120 minutes at room temperature. Nonspecific binding is determined by 10 microM E4031 at the final concentration.

[1] = Metabolic stability assay: half-life in human liver microsomes (HLM); type: in vitro ADME
Protocol: Metabolic Stability Assay:
Half-Life in Human Liver Microsomes (HLM)
Test compounds (1 microM) are incubated with 1 mM MgCl2 and 0.78 mg/mL HLM (HL101) or 0.74 mg/mL HLM (Gentest UltraPool 150) or 0.61 mg/mL HLM (XenoTech XTreme 200) in 100 mM potassium phosphate buffer (pH 7.4) at 37° C. on the 96-deep well plate. The reaction mixture is split into two groups, a non-P450 and a P450 groupon necessary. NADPH is only added to the reaction mixture of the P450 group. (NADPH generation system is also used instead of NADPH.) An aliquot of samples of P450 group is collected at 0, 10, 30, and 60 min time point, where 0 min time point indicated the time when NADPH is added into the reaction mixture of P450 group. An aliquot of samples of non-P450 group is collected at −10 and 65 min time point. Collected aliquots are extracted with acetonitrile solution containing an internal standard. The precipitated protein is spun down in centrifuge (2000 rpm, 15 min). The compound concentration in supernatant is measured by LC/MS/MS system.
The half-life value is obtained by plotting the natural logarithm of the peak area ratio of compounds/internal standard versus time. The slope of the line of best fit through the points yield the rate of metabolism (k). This is converted to a half-life value using following equations: Half-life=ln 2/k {Math. 4}

T1 sequence (Q12809 whole entry): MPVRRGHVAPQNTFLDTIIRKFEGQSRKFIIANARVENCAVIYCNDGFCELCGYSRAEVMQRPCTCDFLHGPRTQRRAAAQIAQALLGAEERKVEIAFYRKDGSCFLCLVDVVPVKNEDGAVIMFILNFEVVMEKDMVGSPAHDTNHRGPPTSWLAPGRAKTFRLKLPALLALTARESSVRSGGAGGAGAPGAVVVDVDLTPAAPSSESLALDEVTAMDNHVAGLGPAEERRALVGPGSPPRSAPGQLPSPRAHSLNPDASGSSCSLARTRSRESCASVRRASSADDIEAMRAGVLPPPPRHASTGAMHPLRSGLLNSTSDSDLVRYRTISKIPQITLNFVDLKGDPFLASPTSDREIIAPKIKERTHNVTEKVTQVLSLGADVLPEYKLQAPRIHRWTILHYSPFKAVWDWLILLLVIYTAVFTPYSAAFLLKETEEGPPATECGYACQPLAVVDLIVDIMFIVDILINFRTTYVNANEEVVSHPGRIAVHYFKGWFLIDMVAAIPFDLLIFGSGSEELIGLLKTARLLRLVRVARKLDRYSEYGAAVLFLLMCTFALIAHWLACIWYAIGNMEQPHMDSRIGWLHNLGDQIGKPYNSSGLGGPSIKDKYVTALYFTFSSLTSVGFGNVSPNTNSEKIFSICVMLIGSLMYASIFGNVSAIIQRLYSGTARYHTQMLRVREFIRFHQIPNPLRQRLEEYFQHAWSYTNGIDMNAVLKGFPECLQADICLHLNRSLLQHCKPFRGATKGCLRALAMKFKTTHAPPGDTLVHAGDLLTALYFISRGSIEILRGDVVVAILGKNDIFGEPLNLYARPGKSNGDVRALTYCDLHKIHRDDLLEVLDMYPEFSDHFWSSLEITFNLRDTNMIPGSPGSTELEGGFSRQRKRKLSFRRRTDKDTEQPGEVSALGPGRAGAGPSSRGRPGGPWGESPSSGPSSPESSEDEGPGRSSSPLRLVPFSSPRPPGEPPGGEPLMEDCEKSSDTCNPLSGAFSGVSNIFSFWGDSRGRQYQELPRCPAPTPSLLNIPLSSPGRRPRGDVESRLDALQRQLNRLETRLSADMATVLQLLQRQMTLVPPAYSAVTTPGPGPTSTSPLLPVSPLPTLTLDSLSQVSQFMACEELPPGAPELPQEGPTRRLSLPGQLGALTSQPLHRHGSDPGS

In the case of CC(C)[C@@H]1CC[C@@H](C)C[C@]12NC(=O)C(CC(=O)c1ccccc1)C2=O (stereo partly shown) [closest compound], the IC50 (Human HERG) is reported as 19 µM, the Ki (Human HERG) is reported as 6.5 µM and the CLint scaled at 1 microM ([1]; human, pH 7.4, read-out: intrinsic clearance (CLint)) is reported as > 215 mL/min/kg. The half-life at 1 microM ([1]; pH 7.4, 1 microM) was < 5 min.
